From ChEMBL document CHEMBL5442175, “EUbOPEN Chemogenomics Library - PDSP Secondary Binding” (2024)
Counter-ions that a name gives are not always drawn.

Columns and labels:
Histamine H1 receptor = Histamine H1 receptor (Homo sapiens, UniProt P35367); assay: (§1) PDSP Secondary Binding target: HRH1 - Compounds are tested at 10 uM concentration, plate are incubated at room temperature in the dark for 90 minutes. Reaction are stopped by vacuum filtration onto 0.3% polyethyleneimine soaked filter mats using Filtermate harvester. Scintillation cocktail is then melted onto microwave-dried filters on a hot plate and the radio activity is counted in Microbia counter.
[1] = molecular target: Sodium-dependent noradrenaline transporter (Homo sapiens, UniProt P23975); assay: as §1, with “SLC6A2” for “HRH1”
[2] = molecular target: 5-hydroxytryptamine receptor 7 (Homo sapiens, UniProt P34969); assay: as §1, with “HTR7” for “HRH1”
[3] = molecular target: T1, 5-hydroxytryptamine receptor 2C (Homo sapiens, UniProt P28335); assay: as §1, with “HTR2C” for “HRH1”
T1 sequence (P28335 whole entry): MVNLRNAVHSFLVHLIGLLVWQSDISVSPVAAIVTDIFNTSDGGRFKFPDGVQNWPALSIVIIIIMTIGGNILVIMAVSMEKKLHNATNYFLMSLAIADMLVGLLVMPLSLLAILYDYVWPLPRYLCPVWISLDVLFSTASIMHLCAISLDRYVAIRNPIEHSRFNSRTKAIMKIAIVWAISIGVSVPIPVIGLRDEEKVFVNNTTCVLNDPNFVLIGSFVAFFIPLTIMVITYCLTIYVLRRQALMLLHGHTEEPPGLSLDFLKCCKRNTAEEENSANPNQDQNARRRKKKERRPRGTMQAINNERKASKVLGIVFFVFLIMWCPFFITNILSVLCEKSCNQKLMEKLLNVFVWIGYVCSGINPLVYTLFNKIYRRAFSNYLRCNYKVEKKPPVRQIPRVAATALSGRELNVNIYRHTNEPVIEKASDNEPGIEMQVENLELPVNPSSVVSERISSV

[4] = molecular target: Sigma non-opioid intracellular receptor 1 (Homo sapiens, UniProt Q99720); assay: as §1, with “SIGMAR1” for “HRH1”
[5] = molecular target: T2, Muscarinic acetylcholine receptor M4 (Homo sapiens, UniProt P08173); assay: as §1, with “CHRM4” for “HRH1”
T2 sequence (P08173 whole entry): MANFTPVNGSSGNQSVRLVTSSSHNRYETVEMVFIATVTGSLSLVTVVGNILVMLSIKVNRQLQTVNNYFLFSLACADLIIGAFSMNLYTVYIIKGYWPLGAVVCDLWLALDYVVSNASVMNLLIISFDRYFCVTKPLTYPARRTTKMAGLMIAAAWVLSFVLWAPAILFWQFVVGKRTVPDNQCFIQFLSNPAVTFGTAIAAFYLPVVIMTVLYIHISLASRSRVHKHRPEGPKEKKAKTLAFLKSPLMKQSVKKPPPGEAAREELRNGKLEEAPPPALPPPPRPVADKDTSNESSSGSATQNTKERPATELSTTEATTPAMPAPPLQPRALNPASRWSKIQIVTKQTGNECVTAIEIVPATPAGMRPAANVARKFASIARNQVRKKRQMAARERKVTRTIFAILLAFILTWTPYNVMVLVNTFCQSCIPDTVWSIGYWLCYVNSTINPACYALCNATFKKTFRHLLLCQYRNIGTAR

[6] = molecular target: Sigma intracellular receptor 2 (Homo sapiens, UniProt Q5BJF2); assay: as §1, with “TMEM97” for “HRH1”
[7] = molecular target: T3, 5-hydroxytryptamine receptor 1A (Homo sapiens, UniProt P08908); assay: as §1, with “HTR1A” for “HRH1”
T3 sequence (P08908 whole entry): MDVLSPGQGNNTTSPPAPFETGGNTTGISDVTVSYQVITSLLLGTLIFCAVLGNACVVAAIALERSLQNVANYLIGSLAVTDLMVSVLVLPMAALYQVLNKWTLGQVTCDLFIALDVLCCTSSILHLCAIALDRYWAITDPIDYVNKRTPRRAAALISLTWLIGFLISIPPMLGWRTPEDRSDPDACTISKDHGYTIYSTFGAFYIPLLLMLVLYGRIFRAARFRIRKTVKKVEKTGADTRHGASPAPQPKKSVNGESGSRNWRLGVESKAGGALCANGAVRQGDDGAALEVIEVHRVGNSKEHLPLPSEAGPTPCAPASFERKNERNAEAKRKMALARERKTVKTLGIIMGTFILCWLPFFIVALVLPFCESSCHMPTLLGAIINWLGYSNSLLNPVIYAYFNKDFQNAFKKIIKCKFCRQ

[8] = molecular target: 5-hydroxytryptamine receptor 1D (Homo sapiens, UniProt P28221); assay: as §1, with “HTR1D” for “HRH1”
[9] = molecular target: T4, Muscarinic acetylcholine receptor M5 (Homo sapiens, UniProt P08912); assay: as §1, with “CHRM5” for “HRH1”
T4 sequence (P08912 whole entry): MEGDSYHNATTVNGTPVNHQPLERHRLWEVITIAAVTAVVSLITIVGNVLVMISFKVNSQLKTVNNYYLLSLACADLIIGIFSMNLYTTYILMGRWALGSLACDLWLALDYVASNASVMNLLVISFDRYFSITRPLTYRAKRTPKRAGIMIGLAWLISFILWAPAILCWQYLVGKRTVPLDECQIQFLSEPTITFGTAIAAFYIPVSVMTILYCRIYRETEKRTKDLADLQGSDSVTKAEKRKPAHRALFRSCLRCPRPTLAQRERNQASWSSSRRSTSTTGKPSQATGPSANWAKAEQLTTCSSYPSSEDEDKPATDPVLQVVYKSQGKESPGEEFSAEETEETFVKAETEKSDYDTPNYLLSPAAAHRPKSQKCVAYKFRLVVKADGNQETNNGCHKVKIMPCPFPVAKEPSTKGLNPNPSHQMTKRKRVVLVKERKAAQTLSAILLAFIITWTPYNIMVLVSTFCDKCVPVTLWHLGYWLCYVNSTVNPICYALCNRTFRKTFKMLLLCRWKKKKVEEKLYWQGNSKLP

[10] = molecular target: 5-hydroxytryptamine receptor 5A (Homo sapiens, UniProt P47898); assay: as §1, with “HTR5A” for “HRH1”
[11] = molecular target: Sodium-dependent dopamine transporter (Homo sapiens, UniProt Q01959); assay: as §1, with “SLC6A3” for “HRH1”
D(1B) dopamine receptor = D(1B) dopamine receptor (Homo sapiens, UniProt P21918); assay: as §1, with “DRD5” for “HRH1”
[12] = molecular target: 5-hydroxytryptamine receptor 1B (Homo sapiens, UniProt P28222); assay: as §1, with “HTR1B” for “HRH1”
Translocator protein = Translocator protein (Homo sapiens, UniProt P30536); assay: as §1, with “TSPO” for “HRH1”
D(4) dopamine receptor = molecular target: T5, D(4) dopamine receptor (Homo sapiens, UniProt P21917); assay: as §1, with “DRD4” for “HRH1”
T5 sequence (P21917 whole entry): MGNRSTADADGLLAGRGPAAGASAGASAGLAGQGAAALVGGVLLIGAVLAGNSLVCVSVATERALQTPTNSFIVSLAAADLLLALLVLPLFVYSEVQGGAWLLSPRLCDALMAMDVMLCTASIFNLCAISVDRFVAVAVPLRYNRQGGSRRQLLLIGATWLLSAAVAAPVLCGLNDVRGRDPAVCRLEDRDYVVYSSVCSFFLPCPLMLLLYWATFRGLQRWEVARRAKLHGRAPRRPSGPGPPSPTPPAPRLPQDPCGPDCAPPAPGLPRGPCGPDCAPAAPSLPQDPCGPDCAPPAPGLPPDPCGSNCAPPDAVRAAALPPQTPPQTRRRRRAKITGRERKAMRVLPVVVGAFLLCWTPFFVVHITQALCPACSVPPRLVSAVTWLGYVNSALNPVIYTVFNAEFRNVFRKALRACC

[13] = molecular target: 5-hydroxytryptamine receptor 6 (Homo sapiens, UniProt P50406); assay: as §1, with “HTR6” for “HRH1”
[14] = molecular target: T6, Muscarinic acetylcholine receptor M1 (Homo sapiens, UniProt P11229); assay: as §1, with “CHRM1” for “HRH1”
T6 sequence (P11229 whole entry): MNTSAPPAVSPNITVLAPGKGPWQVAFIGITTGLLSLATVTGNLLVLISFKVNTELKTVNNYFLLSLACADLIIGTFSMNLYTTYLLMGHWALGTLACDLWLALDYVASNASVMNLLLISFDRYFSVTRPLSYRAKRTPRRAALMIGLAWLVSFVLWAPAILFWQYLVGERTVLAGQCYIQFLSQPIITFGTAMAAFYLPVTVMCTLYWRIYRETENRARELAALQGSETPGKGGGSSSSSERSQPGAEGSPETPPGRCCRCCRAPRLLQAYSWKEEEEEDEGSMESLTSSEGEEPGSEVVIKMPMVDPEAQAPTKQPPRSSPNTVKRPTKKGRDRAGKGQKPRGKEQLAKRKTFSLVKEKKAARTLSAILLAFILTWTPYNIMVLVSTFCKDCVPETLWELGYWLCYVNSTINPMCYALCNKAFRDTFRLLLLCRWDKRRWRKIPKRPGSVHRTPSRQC

Mu-type opioid receptor = Mu-type opioid receptor (Homo sapiens, UniProt P35372); assay: as §1, with “OPRM1” for “HRH1”
[15] = molecular target: T7, 5-hydroxytryptamine receptor 3A (Homo sapiens, UniProt P46098); assay: as §1, with “HTR3A” for “HRH1”
T7 sequence (P46098 whole entry): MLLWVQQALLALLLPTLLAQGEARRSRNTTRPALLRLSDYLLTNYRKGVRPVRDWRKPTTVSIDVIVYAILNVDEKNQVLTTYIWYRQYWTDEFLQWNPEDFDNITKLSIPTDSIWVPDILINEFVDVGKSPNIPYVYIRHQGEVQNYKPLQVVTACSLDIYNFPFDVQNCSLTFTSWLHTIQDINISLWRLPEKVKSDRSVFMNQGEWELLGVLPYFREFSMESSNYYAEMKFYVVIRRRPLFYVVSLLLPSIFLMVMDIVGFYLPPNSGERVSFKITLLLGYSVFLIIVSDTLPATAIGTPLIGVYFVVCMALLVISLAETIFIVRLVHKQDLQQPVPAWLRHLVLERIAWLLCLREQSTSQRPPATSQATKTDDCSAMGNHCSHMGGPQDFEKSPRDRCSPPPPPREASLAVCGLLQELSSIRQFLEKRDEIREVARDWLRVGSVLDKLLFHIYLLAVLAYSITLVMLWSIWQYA

Sequence of Sigma intracellular receptor 2 (Q5BJF2 whole entry): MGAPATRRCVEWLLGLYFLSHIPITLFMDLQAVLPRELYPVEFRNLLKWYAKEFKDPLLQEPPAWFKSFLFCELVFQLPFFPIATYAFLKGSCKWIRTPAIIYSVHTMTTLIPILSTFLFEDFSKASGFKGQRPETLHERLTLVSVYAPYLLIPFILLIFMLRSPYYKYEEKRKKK
Sequence of Sodium-dependent noradrenaline transporter (P23975 whole entry): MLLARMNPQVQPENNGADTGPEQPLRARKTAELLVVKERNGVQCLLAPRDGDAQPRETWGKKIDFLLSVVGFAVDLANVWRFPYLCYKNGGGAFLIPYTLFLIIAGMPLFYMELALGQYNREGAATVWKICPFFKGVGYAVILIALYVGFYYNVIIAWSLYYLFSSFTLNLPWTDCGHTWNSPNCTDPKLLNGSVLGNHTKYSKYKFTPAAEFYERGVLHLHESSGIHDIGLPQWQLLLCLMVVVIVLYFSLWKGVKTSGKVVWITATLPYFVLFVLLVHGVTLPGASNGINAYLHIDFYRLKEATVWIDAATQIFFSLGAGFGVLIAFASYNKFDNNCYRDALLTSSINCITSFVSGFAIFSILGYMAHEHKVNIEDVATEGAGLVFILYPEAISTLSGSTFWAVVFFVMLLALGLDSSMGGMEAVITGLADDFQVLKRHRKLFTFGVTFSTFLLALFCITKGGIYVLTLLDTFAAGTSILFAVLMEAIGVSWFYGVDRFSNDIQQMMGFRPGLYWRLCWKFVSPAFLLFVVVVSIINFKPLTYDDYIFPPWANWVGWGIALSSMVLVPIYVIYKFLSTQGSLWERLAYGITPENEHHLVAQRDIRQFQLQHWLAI
Sequence of Sigma non-opioid intracellular receptor 1 (Q99720 whole entry): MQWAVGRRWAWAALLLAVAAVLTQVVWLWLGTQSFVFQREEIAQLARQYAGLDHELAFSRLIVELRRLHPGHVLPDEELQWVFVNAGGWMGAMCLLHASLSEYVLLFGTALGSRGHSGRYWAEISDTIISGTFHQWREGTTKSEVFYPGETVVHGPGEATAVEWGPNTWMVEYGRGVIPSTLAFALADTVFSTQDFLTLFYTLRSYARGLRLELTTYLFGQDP
Sequence of 5-hydroxytryptamine receptor 1D (P28221 whole entry): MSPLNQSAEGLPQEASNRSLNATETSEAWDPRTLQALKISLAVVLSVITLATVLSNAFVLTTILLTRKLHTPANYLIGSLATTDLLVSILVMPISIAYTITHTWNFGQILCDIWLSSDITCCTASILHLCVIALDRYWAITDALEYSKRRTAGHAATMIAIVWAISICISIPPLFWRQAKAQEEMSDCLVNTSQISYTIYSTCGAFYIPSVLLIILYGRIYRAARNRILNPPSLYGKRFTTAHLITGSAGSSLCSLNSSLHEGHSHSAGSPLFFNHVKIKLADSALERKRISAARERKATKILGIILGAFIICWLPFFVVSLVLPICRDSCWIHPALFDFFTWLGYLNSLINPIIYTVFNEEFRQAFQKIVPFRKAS
Sequence of 5-hydroxytryptamine receptor 7 (P34969 whole entry): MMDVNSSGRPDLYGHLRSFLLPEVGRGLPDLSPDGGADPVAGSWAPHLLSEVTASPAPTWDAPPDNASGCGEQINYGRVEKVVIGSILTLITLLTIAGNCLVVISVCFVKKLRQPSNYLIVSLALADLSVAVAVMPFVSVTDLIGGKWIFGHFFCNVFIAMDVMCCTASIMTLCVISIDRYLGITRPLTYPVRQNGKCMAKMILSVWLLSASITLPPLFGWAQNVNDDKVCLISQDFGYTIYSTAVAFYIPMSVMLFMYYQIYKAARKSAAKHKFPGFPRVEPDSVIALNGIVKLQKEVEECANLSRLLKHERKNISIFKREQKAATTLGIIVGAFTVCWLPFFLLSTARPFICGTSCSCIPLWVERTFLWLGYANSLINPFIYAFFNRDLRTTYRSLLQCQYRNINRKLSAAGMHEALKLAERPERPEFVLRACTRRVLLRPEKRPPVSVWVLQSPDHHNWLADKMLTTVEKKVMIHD
Sequence of Translocator protein (P30536 whole entry): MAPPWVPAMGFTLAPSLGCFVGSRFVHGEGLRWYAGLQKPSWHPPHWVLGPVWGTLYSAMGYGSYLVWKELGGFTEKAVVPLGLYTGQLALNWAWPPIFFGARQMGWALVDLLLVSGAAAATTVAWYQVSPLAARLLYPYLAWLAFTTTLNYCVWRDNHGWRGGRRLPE
Sequence of Histamine H1 receptor (P35367 whole entry): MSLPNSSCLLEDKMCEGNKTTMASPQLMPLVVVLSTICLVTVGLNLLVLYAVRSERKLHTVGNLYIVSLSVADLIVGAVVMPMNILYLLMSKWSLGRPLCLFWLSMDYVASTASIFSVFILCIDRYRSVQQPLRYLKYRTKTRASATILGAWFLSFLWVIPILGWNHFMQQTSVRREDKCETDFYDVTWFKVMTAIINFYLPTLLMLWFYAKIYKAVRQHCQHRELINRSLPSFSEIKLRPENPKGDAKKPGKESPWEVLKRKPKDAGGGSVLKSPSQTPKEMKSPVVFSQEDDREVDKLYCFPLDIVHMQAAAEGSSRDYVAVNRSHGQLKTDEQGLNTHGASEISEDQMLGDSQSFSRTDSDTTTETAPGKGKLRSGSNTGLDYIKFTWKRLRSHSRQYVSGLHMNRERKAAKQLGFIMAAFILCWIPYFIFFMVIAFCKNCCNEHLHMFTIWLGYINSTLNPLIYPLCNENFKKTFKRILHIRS
Sequence of 5-hydroxytryptamine receptor 5A (P47898 whole entry): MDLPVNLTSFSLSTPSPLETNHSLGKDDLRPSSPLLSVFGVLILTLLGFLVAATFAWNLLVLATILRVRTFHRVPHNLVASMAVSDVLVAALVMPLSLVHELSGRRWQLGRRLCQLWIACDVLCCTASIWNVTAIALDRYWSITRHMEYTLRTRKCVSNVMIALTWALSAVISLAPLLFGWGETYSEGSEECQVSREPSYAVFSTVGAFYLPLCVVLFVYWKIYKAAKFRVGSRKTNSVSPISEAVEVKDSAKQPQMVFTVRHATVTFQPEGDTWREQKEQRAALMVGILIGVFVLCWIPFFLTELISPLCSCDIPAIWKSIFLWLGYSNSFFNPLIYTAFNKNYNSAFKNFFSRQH
Sequence of D(1B) dopamine receptor (P21918 whole entry): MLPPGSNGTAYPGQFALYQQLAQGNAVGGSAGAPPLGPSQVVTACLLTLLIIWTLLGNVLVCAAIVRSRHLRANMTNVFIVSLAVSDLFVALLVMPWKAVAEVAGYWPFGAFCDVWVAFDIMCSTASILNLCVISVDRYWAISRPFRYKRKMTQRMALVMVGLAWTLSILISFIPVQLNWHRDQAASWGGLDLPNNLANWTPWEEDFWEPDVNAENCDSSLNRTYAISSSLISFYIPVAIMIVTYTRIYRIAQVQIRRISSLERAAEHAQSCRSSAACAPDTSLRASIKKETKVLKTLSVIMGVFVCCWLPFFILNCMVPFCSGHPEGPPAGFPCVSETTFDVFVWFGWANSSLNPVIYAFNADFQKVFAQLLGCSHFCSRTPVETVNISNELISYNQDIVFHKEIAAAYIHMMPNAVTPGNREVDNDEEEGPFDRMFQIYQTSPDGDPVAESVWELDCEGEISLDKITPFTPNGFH
Sequence of Sodium-dependent dopamine transporter (Q01959 whole entry): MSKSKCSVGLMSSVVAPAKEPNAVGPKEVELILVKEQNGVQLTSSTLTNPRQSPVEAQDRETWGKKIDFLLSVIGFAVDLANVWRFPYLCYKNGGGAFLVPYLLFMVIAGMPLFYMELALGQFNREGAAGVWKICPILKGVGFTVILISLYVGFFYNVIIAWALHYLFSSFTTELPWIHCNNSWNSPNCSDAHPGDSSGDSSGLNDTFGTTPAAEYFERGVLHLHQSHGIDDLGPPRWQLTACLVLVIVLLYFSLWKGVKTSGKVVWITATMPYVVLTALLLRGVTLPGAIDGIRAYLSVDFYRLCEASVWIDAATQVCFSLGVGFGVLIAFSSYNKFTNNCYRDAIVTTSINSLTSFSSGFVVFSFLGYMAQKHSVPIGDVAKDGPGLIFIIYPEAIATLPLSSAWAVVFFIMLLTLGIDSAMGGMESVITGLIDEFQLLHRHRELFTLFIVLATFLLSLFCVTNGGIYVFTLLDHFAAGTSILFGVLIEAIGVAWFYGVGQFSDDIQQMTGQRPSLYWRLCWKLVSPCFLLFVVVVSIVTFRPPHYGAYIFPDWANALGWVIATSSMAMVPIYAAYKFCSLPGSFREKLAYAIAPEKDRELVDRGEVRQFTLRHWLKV
Sequence of 5-hydroxytryptamine receptor 6 (P50406 whole entry): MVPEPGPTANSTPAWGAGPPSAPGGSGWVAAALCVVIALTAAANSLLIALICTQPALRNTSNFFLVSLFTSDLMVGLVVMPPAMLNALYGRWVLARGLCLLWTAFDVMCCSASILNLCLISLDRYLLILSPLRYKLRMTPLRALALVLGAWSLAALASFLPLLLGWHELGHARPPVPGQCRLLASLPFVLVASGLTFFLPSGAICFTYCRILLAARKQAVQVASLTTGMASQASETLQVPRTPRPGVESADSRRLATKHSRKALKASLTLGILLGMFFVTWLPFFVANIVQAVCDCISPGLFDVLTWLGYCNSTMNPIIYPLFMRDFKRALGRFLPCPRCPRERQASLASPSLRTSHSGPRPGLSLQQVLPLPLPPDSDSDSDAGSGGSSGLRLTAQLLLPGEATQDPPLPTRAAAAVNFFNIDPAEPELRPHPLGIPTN
Sequence of Mu-type opioid receptor (P35372 whole entry): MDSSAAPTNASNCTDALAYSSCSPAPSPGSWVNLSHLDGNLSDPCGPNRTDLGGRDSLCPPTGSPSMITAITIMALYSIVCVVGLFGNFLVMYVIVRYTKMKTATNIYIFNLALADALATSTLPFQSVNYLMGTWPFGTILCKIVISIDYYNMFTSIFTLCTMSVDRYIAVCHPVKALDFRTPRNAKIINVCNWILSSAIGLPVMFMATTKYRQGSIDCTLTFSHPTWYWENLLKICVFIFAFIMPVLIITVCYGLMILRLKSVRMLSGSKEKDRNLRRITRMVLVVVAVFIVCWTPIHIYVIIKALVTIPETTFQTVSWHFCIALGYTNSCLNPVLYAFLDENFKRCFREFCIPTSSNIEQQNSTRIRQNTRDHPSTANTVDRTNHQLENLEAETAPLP

SMILES | Ki [1] [µM] | Ki [2] [µM] | Ki [4] [µM] | Ki (Histamine H1 receptor) [µM] | Ki [3] [µM] | Ki [5] [µM] | Ki [6] [µM] | Ki [8] [µM] | Ki [9] [µM] | Ki [10] [µM] | Ki (Translocator protein) [µM] | also measured
CC(C)[C@H](CO)Nc1nc(Nc2cccc(Cl)c2)c2ncn(C(C)C)c2n1 [PURVALANOLA] | 4.4 |  |  |  | 3.04 | > 10 | 1.13 | 3.8 |  | 7.54 | 1.52 | Ki (D(4) dopamine receptor): 4.87 µM; Ki [13]: 2.27 µM
Cc1ccc(O)c([C@H](CCN(C(C)C)C(C)C)c2ccccc2)c1 [TOLTERODINE TARTRATE] |  |  | 0.216 | 0.127 |  |  | 0.167 |  | 0.00386 |  |  | Ki [14]: 0.00869 µM
C[N+]1(C)[C@@H]2C[C@@H](OC(=O)C(O)(c3cccs3)c3cccs3)C[C@H]1[C@@H]1O[C@@H]12 [TIOTROPIUM BROMIDE] |  |  |  |  |  | 0.0006 | 2.06 |  | 0.00122 |  | 4.29 | 

More lines, main results first:

Ki [1] [µM] | Ki [2] [µM] | Ki [4] [µM] | SMILES | Ki (Histamine H1 receptor) [µM] | Ki [3] [µM] | Ki [5] [µM] | Ki [6] [µM] | Ki [8] [µM] | Ki [9] [µM] | Ki [10] [µM] | Ki (Translocator protein) [µM] | also measured
1.92 | 1.1 | 0.000904 | Clc1ccc(CCCOCCCN2CCCCC2)cc1 [PITOLISANT HYDROCHLORIDE] | 1.2 | 1.99 | 0.899 | 0.00701 |  |  |  |  | 
1.85 | 3.3 |  | O=C(O)c1cc(-c2ccc(C3CCNCC3)cc2)c2ccc(-c3ccc(C(F)(F)F)cc3)cc2c1 |  |  |  | 1.06 | 1.19 | 2.19 | 2.4 |  | Ki [7]: 2.54 µM; Ki [11]: 1.22 µM; Ki (D(1B) dopamine receptor): 1.05 µM; Ki [12]: 1.16 µM
 |  | 2 | CCc1nn2c(C)cc(C)nc2c1Cc1ccc(-c2nnc(C3CCNCC3)o2)cc1 |  |  |  | 0.489 |  |  |  |  | Ki (Mu-type opioid receptor): 7.72 µM; Ki [15]: 0.36 µM
